Measured values as given in patent US9518107B2, “Pharmaceutical compositions containing polypeptides derived from α-1 antitrypsin and methods of use thereof” (YISSUM RESEARCH DEVELOPMENT COMPANY OF THE HEBREW …, priority 2010, dated 2016).

Experiments:
[1] = system: T-lymphocytes; experiment: Lymphocyte proliferation in vitro (viable cell count, trypan blue); type: cell-based, female C57B1/6 mice; conditions: 96 hours incubation; FIG. 17
Description: T-lymphocytes were harvested from lymph nodes of female C57B1/6 mice by standard methodology and seeded (1.3×10^6 cells/ml) in 96 well plate […]. Thereafter, UBE was added to the culture at the indicated concentrations and incubated for 96 hours (6% CO2, 37° C.). The medium containing the polypeptide was replaced after 48 hours of incubation. Viable cells (trypan blue staining) were counted a light microscope.

[2] = system: Female C57BL/6 mice; experiment: Experimental autoimmune encephalitis (EAE), MOG 35-55 induced, neurological score; type: in vivo; conditions: thrice a week
Description: (§1) Female C57BL/6 mice were injected subcutaneously into 4 sites on the back, adjacent to each of the forelimbs and hindlimbs (total amount 200 μl) with a myelin oligodendritic glycoprotein (MOG) 35-55 fragment emulsified with complete Freund's adjuvant. Thereafter, each animal was i.p. injected with pertusis toxin (PTX; 200 ng/mouse) in PBS and an additional
PTX injection was repeated 2 days later, which is a standard protocol for initiating experimental autoimmune encephalomyelitis (EAE) in mice. UBE polypeptide (SEQ ID NO:2) was intraperitoneally (i.p.) injected (0.3 μg/kg, thrice a week) five days after MOG immunization (day of onset of symptoms). The animals were evaluated for neurological score from 0 (no effect) to 6 (severe neurological symptoms including paralysis). Results are the mean±SE of neurological score (sum of all scores divided by the number of animals in each experimental group) at each of the indicated time intervals after MOG injection.
as §1, with “additional PTX injection was repeated 2 days later. Four days after MOG immunization, each mouse received i.p. injections (1 μg/kg, thrice a week) of each of the following polypeptides:” for “additional”
The animals were evaluated for neurological score from 0 (no effect) to 6 (severe neurological symptoms including paralysis). Results are the mean±SE of neurological score (sum of all scores divided by the number of animals in each experimental group) at each of the indicated time intervals after immunization.

[3] = system: female MRL/lpr mice; experiment: Spontaneous lupus-like syndrome in MRL/lpr mice (Systemic Lupus Erythematosus model); type: in vivo
Description: MRL/lpr mice develop a lupus-like syndrome spontaneously. UBE (SEQ ID NO:2) (1 μg/kg) was administered to female MRL/lpr mice thrice a week, starting at age of 12 weeks. Urine was obtained by spontaneous urination and the levels of protein (mg/dl) and erythrocytes (cells/dl) in the urine were evaluated throughout the treatment period (4 weeks) using commercial sticks.
In order to determine the levels of anti-dsDNA antibodies, blood was obtained by cardiac puncture of the MRL/lpr mice after 4 weeks of UBE treatment, and the serum levels of anti-dsDNA antibodies were evaluated using a commercial ELISA kit.
Serum levels of anti-dsDNA antibodies were determined by ELISA with the aid of a commercial kit (Euroimmun, Lubeck, Germany) following the manufacturer's instructions and detection antibodies were purchased for use with same (Bethyl Laboratories, Montgomery, Tex., USA).
Quantitative histopathology analysis of the kidneys was also performed. The kidneys of the mice after 4 weeks of UBE treatment were removed, fixed in formalin, sliced, and stained by H&E and by periodic acid […] stain. Representative histophathologies of the glomeruli and tubulointerstitial areas in control versus UBE treated mice is shown FIGS. 7C and 7D, versus 7E and 7F at 2× and 20×, respectively. The quantitative histopathology analysis is presented in FIG. 7A and FIG. 7B, respectively.
To evaluate the effect of UBE on lymphocyte function in MRL/lpr mice, peripheral lymph nodes and spleen cells were isolated from the control and UBE-treated mice and subjected to FACS analysis probing for CD4, CD8 and B220 marker expression (FIG. 8). Peripheral lymph node cells were positively selected for CD3 expression and the percent of CD3+ cells, which were negative for CD4− and CD8− expression was evaluated. Representative results from control and UBE treated animals are shown in FIGS. 8A and 8B, respectively. […] Spleen cells were similarly evaluated and representative results from control and UBE treated animals are shown in FIGS. 8C and 8D, respectively.
In parallel, peripheral lymph node cells were positively selected for B220+ expression. Representative results from control and UBE treated animals are shown in FIGS. 8G and 8H, respectively. […] Spleen cells were similarly evaluated and representative results from control and UBE treated animals are shown in FIGS. 8I and 8J, respectively.

[4] = system: HaCaT keratinocytes; experiment: HaCaT keratinocyte proliferation (MTT assay); type: cell-based; conditions: FIG. 18
Description: Cells (1.6×10^4/ml) were seeded (100 μl) in culture medium in 96 well plate. Twenty four hours later UBE was added at the indicated concentrations. Cell viability was determined by the MTT assay.

[5] = system: mice; experiment: LPS induced sepsis in mice, second protocol, UBE i.p.; type: in vivo; conditions: for survival of the mice treated: repeated after 24 hours, 50 hours post LPS injection, FIG. 20A
Description: In a second protocol, mice were injected i.p. with LPS (dissolved in saline solution) at a dose of 1.2 mg/mouse, followed by i.p. injection of UBE at a dose of 1.0 or 10.0 μg/kg after 30 minutes. UBE treatment was repeated after 24 hours (n=4 for UBE-treated groups and n=5 for controls).

[6] = system: Female C57B1/6 mice; experiment: LPS induced sepsis in mice, UBE i.v.; type: in vivo; conditions: i.v. within 1 hour after LPS 1.2 mg/mouse; 48 hours after LPS; 0.1 and 1.0 μg/kg; FIG. 20B
Description: Female C57B1/6 mice 7-8 weeks of age were injected i.p with LPS 1.2 mg/mouse. Thereafter (within 1 hour) UBE peptide as depicted by SEQ ID NO: 2 was injected i.v. (100 μl) at different doses; control group received PBS. Survival of mice was monitored. n=10 for control group, n=9 for each UBE-treated group.

[7] = system: Male CD1 mice; experiment: Carrageenan-induced hind paw swelling; type: in vivo; conditions: UBE injected thirty minutes before carrageenan; swelling after 3 hours versus prior to carrageenan; FIG. 1
Description: Male CD1 mice were intravenously (i.v.) injected with the indicated doses of the UBE polypeptide having the sequence […] (SEQ ID NO:2). Thirty minutes thereafter, each animal was injected with carrageenan (50 μl of 3 mg/ml into each hindpaw). The animals were evaluated for the difference between the degree of swelling (mm) after 3 hours and prior to carrageenan injection.

[8] = after 4 weeks of UBE treatment, 1 μg/kg, FIG. 7

## SMPPIVRFDHPFLFIIFEEHTQSPLFVGKVVDPTHK (listed as Mus musculus) [UBE, 36-mer peptide corresponding to residues 378-413 of Mus musculus alpha-1-antitrypsin (serpin a1c)]
[1]
  concentration of maximal effect on T cell proliferation: 1 ng/mL
[2]; i.p. 0.3 μg/kg, from five days after MOG immunization, FIG. 2
  neurological symptoms (neurological score 0 to 6): reduced the neurological symptoms
[2]; i.p. 1 μg/kg, from four days after MOG immunization, FIG. 3
  neurological symptoms (neurological score 0 to 6): reduced the neurological symptoms
[3]; 1 μg/kg thrice a week from age of 12 weeks, 4 weeks, FIG. 4
  proteinuria (urinary protein): significant reduction
[3]; 1 μg/kg thrice a week from age of 12 weeks, 4 weeks, FIG. 5
  urinary microhematuria: significant reduction
[3]; after 4 weeks of UBE treatment, 1 μg/kg, FIG. 6
  anti-dsDNA antibodies in the blood (serum, ELISA): significant reduction
[3]; [8]
  pathological score of the glomeruli (kidney histopathology): significant reduction
  pathological score of the tubulointerstitial areas (kidney histopathology): significant reduction
[3]; peripheral lymph nodes
  percent of B220+ cells, FACS: dramatically reduced
[3]; peripheral lymph nodes, FIG. 8E
  double negative CD4−CD8− cells (expressed as percent CD3+), FACS: dramatically reduced
[3]; spleen cells
  percent of B220+ cells, FACS: dramatically reduced
[3]; spleen cells, FIG. 8F
  double negative CD4−CD8− cells, FACS: dramatically reduced
[4]
  effect on cultured keratinocyte proliferation (cell viability, MTT): anti-proliferative effect
[5]; UBE 1.0 μg/kg i.p. 30 minutes after LPS
  survival of the mice treated: approximately 50%
[5]; UBE 10 μg/kg i.p. 30 minutes after LPS
  survival of the mice treated: approximately 50%
[5]; both UBE dosages (1.0 and 10 μg/kg i.p.)
  survival time as compared to controls: significantly prolonged survival
[6]
  reduction of LPS-induced mortality: 33%
[7]
  carrageenan-induced inflammation (hind paw swelling): significant reduction
